Assay results as given in patent US4563451A, “Quinazolino-1,4-benzodiazepin-5,13-diones” (Merck & Co., Inc., priority 1985, dated 1986).
Where a SMILES comes first, the peptide text is derived from it. [ ]: non-standard residue; d: D form. The star is where a group is joined. sY = N[C@@H](Cc1ccc(OS(=O)(=O)O)cc1)C(=O)O; Cbz = O=C(OCc1ccccc1)*; Boc = CC(C)(C)OC(=O)*

Biological target: T1, CCK receptor (pancreas) (Rattus norvegicus, UniProt P30551)
T1 construct: The whole pancreas of a male Sprague-Dawley rat; from tissue; host or cells: whole pancreas of male Sprague-Dawley rat, washed membrane suspension
T1 sequence (P30551 1-444): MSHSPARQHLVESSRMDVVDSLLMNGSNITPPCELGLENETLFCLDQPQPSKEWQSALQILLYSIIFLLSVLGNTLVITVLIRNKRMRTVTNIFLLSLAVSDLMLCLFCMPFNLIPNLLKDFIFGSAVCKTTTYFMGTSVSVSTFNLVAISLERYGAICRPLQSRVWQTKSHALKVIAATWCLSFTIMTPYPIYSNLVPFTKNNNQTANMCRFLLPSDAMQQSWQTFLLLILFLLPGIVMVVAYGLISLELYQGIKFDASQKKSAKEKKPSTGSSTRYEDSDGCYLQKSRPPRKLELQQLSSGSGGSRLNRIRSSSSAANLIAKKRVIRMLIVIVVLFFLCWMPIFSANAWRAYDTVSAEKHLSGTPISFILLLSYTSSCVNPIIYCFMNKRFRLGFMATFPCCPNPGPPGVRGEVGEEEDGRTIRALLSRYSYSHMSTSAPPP
Test: CCK receptor binding (pancreas) method; I-CCK-8 pancreas assay (CCK-antagonism)
Design: species or system male Sprague-Dawley rat
Conditions: 125I-CCK binding, rat pancreas membranes, 37° C., 30 minutes; read-out: Anti-CCK Activity IC50
Source text: Screening of the novel compounds according to the present invention to determine biological activity and obtain an IC50 value for them, in order to identify significant CCK-antagonism, may be accomplished using an ^125 I-CCK receptor binding assay and in vitro isolated tissue preparations. These tests involve the following:
CCK receptor binding (pancreas) method
CCK-33 is radiolabeled with ^125 I-Bolton Hunter reagent (2000 Ci/mmole), as described by Sankara et al. (J. Biol. Chem., 254, 9349-9351, 1979). Receptor binding is performed according to Innis and Snyder (Proc. Natl. Acad. Sci., 77, 6917-6921, 1980), with the minor modification of adding the additional protease inhibitors, phenyl-methane sulfonyl fluoride and o-phenanthroline, which have no effect on the ^125 I-CCK receptor binding assay.
The whole pancreas of a male Sprague-Dawley rat (200-350 g), which has been sacrificed by decapitation, is dissected free of fat tissue and homogenized in 20 volumes of ice-cold 50 mM Tris HCl (pH 7.7 at 25° C.) with a Brinkman Polytron PT-10. The homogenates are centrifuged at 48,000 g for 10 minutes, then the resulting pellets are resuspended in Tris Buffer, centrifuged as above, and resuspended in 200 volumes of binding assay buffer (50 mM Tris HCl, pH 7.7 at 25° C., 5 mM dithiothreitol, 0.1 mM bacitracin, 1.2 mM phenylmethane sulfonyl fluoride and 0.5 mM o-phenanthroline).
For the binding assay, 25 μl of buffer (for total binding), or unlabeled CCK-8 sulfate sufficient to give a final concentration of 1 μM of CCK-8 (for nonspecific binding), or the compounds of the formula of the compounds according to the instant invention (for determination of antagonism to ^125 I-CCK binding) and 25 μl of ^125 I-CCK-33 (30,000-40,000 cpm), are added to 450 μl of the membrane suspensions in microfuge tubes. All assays are run in duplicate or triplicate, and the reaction mixtures are incubated at 37° C. for 30 minutes and centrifuged in a Beckman Microfuge (4 minutes) immediately after adding 1 ml of ice-cold incubation buffer. The supernatant is aspirated and discarded, and the pellets are counted with a Beckman Gamma 5000.
Activity Testing with I-CCK-8 Pancreas Assay
The compounds of Examples 1-11 were tested as CCK-antagonists (pancreas assay) with the following results: […]

| Structure (SMILES) | IC50 |
| --- | --- |
| CC(C)C[C@H]1C(=O)N2c3ccccc3[C@@](O)(C[C@@H]3NC(=O)c4ccccc4N4C(=O)c5ccccc5NC34)[C@H]2N1O (stereo partly drawn) [Example 5, 7,7α-dihydro-7-[(2,3,9,9Aα-tetrahydro-1,9α-dihydroxy-2-(2-methylpropyl)-3-oxo-1H-imidazo-(1,2-A)-indol-9-yl)methyl]quinazolino(3,2-A)-1,4-benzodiazepin-5,13(6H,7H)-dione hydrate] | 0.67 µM |
| CC(C)C[C@@H]1N[C@H]2N(C1=O)c1ccccc1[C@@]2(O)C[C@@H]1NC(=O)c2ccccc2N2C(=O)c3ccccc3NC12 (stereo partly drawn) [Example 1, 7,7a-dihydro-7-[(2,3,9,9Aα-tetrahydro-9α-hydroxy-2-(2-methylpropyl)-3-oxo-1H-imidazo(1,2-a)indol-9-yl)methyl]quinazolino(3,2-a)(1,4)benzazepin-5,13-(6H,7H)dione hydrate] | 0.21 µM |
| CC(C)CC1C(=O)N2c3ccccc3C(O)(CC3NC(=O)c4ccccc4-n4c3nc3ccccc3c4=O)C2N1CCCc1ccccc1 (stereo not drawn) [Example 6, 7-[1-(3-phenylpropyl)-2,3,9,9Aα-tetrahydro-9α-hydroxy-2-(2-methylpropyl)-3-oxo-1H-imidazo(1,2-A)indol-9-yl)methyl]-6,7,7A,8-tetrahydro-5H,13H-quinazolino(3,2-A)-1,4-benzazepin-5H,13-dione sesquihydrate] | 0.19 µM |
| CC(=O)N1[C@H]2N(C(=O)[C@@H]1CC(C)C)c1ccccc1[C@@]2(O)C[C@@H]1NC(=O)c2ccccc2-n2c1nc1ccccc1c2=O [Example 2, 7-[(1-acetyl-2,3,9,9Aα-tetrahydro-9α-hydroxy-2-(2-methylpropyl)-3-oxo-1H-imidazo(1,2-A)indol-9-yl)methyl]quinazolino(3,2-A)-1,4-benzodiazepin-5,13-(6H,7H)-dione] | 22 µM |

Results, then the compound that gave them:

| IC50 | Structure (SMILES) |
| --- | --- |
| 1.3 µM | CC(C)C[C@H]1C(=O)N2c3ccccc3[C@@](O)(C[C@@H]3NC(=O)c4ccccc4N4C(=O)c5ccccc5NC34)[C@H]2N1C(=O)C(CCCNC(=O)OCc1ccccc1)NC(=O)OC(C)(C)C (stereo partly drawn) [Example 11, 7-{{1-[2-((1,1-dimethylethoxy)carbonyl)amino-5-(phenylmethyloxycarbonyl)aminopentanoyl]-2,3,9,9Aα-tetrahydro-9α-hydroxy-2-(2-methylpropyl)-3-oxo-1H-imidazo(1,2-A)indol-9-yl}methyl}-6,7,7A,8-tetrahydro-5H,13-quinazolino(3,2-A)-1,4-benzodiazepin-5H,13-dione hydrate] |
| 46 µM | CC(C)C[C@H]1C(=O)N2c3ccccc3[C@@](O)(C[C@@H]3NC(=O)c4ccccc4-n4c3nc3ccccc3c4=O)[C@H]2N1C(=O)[C@H](Cc1ccc(O)cc1)NC(=O)OC(C)(C)C [Example 8, 7-{{1-[2-((1,1-dimethylethoxy)carbonyl)amino-3-(4-hydroxyphenyl)propanoyl]-2,3,9,9Aα-tetrahydro-9α-hydroxy-2-(2-methylpropyl)-3-oxo-1H-imidazo(1,2-A)indol-9-yl}methyl}quinazolino(3,2-A)-1,4-benzodiazepin-5,13-(6H,7H)-dione hemihydrate] |
| 0.35 µM | CCN1[C@H]2N(C(=O)[C@@H]1CC(C)C)c1ccccc1[C@@]2(O)C[C@@H]1NC(=O)c2ccccc2N2C(=O)c3ccccc3NC12 (stereo partly drawn) [Example 3, 7-[(1-ethyl-2,3,9,9Aα-tetrahydro-9α-hydroxy-2-(2-methylpropyl)-3-oxo-1H-imidazo(1,2-A)indol-9-yl)methyl]-6,7,7A,8-tetrahydro-5H,13H-quinazolino-(3,2-A)-1,4-benzazepin-5H,13-dione hemihydrate] |
| 4.3 µM | CC(C)C[C@H]1C(=O)N2c3ccccc3[C@@](O)(C[C@@H]3NC(=O)c4ccccc4-n4c3nc3ccccc3c4=O)[C@H]2N1C(=O)C(CCCNC(=O)OCc1ccccc1)NC(=O)OC(C)(C)C (stereo partly drawn) [Example 10, 7-{{1-[2-((1,1-dimethylethoxy)carbonyl)amino-5-(phenylmethyloxycarbonyl)aminopentanoyl]-2,3,9,9Aα-tetrahydro-9α-hydroxy-2-(2-methylpropyl)-3-oxo-1H-imidazo(1,2-A)indol-9-yl}methyl}quinazolino(3,2-A)-1,4-benzodiazepin-5,13-(6H,7H)-dione] |
| 100 µM | CC(C)C[C@H]1C(=O)N2c3ccccc3[C@@](O)(C[C@@H]3NC(=O)c4ccccc4-n4c3nc3ccccc3c4=O)[C@H]2N1C(=O)C(CCCCNC(=O)OCc1ccccc1)NC(=O)OC(C)(C)C (stereo partly drawn) [Example 9, 7-{{1-[2-((1,1-dimethylethoxy)carbonyl)amino-6-(phenylmethyloxycarbonyl)aminohexanoyl]-2,3,9,9Aα-tetrahydro-9α-hydroxy-2-(2-methylpropyl)-3-oxo-1H-imidazo(1,2-A)indol-9-yl}methyl}quinazolino(3,2-A)-1,4-benzodiazepin-5,13-(6H,7H)-dione hydrate] |
| 100 µM | CC(C)C[C@H]1C(=O)N2c3ccccc3[C@@](O)(C[C@@H]3NC(=O)c4ccccc4-n4c3nc3ccccc3c4=O)[C@H]2N1C(=O)[C@H](Cc1ccc(OCc2ccccc2)cc1)NC(=O)OC(C)(C)C [Example 7, 7-{{1-[N-((1,1-dimethylethoxy)carbonyl)-o-phenylmethyltryosyl]-2,3,9,9Aα-tetrahydro-9α-hydroxy-2-(2-methylpropyl)-3-oxo-1H-imidazo(1,2-A)indol-9-yl}methyl}quinazolino(3,2-A)-1,4-benzodiazepin-5,13-(6H,7H)-dione] |
| 5 µM | CC(C)CC1C(=O)N2c3ccccc3C(O)(CC3NC(=O)c4ccccc4-n4c3nc3ccccc3c4=O)C2N1C(=O)OCc1ccccc1 (stereo not drawn) [Example 4] |

Same assay, conditions: added protease inhibitor in the binding assay

| Structure (SMILES) | effect on the 125I-CCK receptor binding assay |
| --- | --- |
| O=S(=O)(F)Cc1ccccc1 [phenyl-methane sulfonyl fluoride, reference compound] | no effect |
| c1cnc2c(c1)ccc1cccnc12 [o-phenanthroline, reference compound] | no effect |

Test system: CCK-receptor
Test: not given
Conditions: background; cited from earlier work

| Structure (SMILES) | CCK-antagonism (in words) |
| --- | --- |
| CSCC[C@H](NC(=O)[C@H](Cc1ccc(OS(=O)(=O)O)cc1)NC(=O)OCc1ccccc1)C(=O)NCC(=O)N[C@@H](Cc1c[nH]c2ccccc12)C(=O)N[C@@H](CCSC)C(=O)N[C@@H](CC(=O)O)C(N)=O [Cbz--Tyr(SO3 H)--Met--Gly--Trp--Met--Asp--NH2] (Cbz-[sY]MGWMD-NH2) | can function as CCK-antagonists |
| CSCC[C@H](N)C(=O)N[C@@H](CC(=O)O)C(=O)N[C@@H](Cc1ccccc1)C(N)=O [Met--Asp--Phe--NH2] (H-Met-Asp-Phe-NH2) | can function as CCK-antagonists |
| CC(C)C[C@@H]1N[C@H]2N(C1=O)c1ccccc1[C@@]2(O)C[C@@H]1NC(=O)c2ccccc2-n2c1nc1ccccc1c2=O [formula (I), 7β-((2,3,9,9Aα-tetrahydro-9α-hydroxy-2-(2-methylpropyl)-3-oxo-1H-imidazo-(1,2-A)-indol-9-yl)-methyl)quinazolino(3,2-A)(1,4)benzodiazepin-5,13-(6H,7H)dione] | has been shown to be a CCK-antagonist |
| CCCC(=O)Nc1nc2c(ncn2[C@@H]2O[C@@H]3COP(=O)(O)O[C@H]3[C@H]2OC(=O)CCC)c(=O)[nH]1 [dibutyryl cyclic GMP] | the most potent |
| CSCC[C@H](NC(=O)OC(C)(C)C)C(=O)N[C@@H](CC(=O)O)C(=O)N[C@@H](Cc1ccccc1)C(N)=O [Boc--Met--Asp--Phe--NH2] (Boc-Met-Asp-Phe-NH2) | can function as CCK-antagonists |
